From the NIST ThermoML archive (doi:10.1016/j.fluid.2018.05.004)
Numbers after ± are expanded uncertainties.

Settings: Crystal, Transpiration method

In the case of `[CH]1C=CC=C1.[CH]1C=CC=C1.[Fe]` [ferrocene], the “vapor or sublimation pressure” value (361.2 K) is reported as 0.172 ± 0.021 kPa, the “vapor or sublimation pressure” value (363.2 K) is reported as 0.198 ± 0.025 kPa and the “vapor or sublimation pressure” value (366.5 K) is reported as 0.244 ± 0.031 kPa. The “vapor or sublimation pressure” value (368.2 K) was 0.263 ± 0.034 kPa, the “vapor or sublimation pressure” value (371.7 K) was 0.332 ± 0.042 kPa and the “vapor or sublimation pressure” value (374.4 K) was 0.398 ± 0.05 kPa. The “vapor or sublimation pressure” value (378.3 K) was 0.494 ± 0.063 kPa, the “vapor or sublimation pressure” value (385.7 K) was 0.789 ± 0.098 kPa and the “vapor or sublimation pressure” value (388.6 K) was 0.907 ± 0.11 kPa. The “vapor or sublimation pressure” value (392.1 K) was 1.13 ± 0.14 kPa, the “vapor or sublimation pressure” value (394 K) was 1.23 ± 0.15 kPa and the “vapor or sublimation pressure” value (401.8 K) was 1.881 ± 0.24 kPa. For the same compound, the “vapor or sublimation pressure” value (410.1 K) was 2.869 ± 0.36 kPa, the “vapor or sublimation pressure” value (417.3 K) was 4.29 ± 0.54 kPa and the “vapor or sublimation pressure” value (419.4 K) was 4.338 ± 0.54 kPa. For the same compound, the “vapor or sublimation pressure” value (429.4 K) was 7.204 ± 0.9 kPa, the “vapor or sublimation pressure” value (430.7 K) was 7.571 ± 0.95 kPa and the “vapor or sublimation pressure” value (434.6 K) was 9.559 ± 1.2 kPa. The “vapor or sublimation pressure” value (435.2 K) was 9.195 ± 1.2 kPa.
